Laboratory results published in the supplement of paper PMC10307832.

What was measured:
Experiment in all cases: relative viability (nuclei count vs DMSO), 5 days (fraction); higher = more cells survive
[1] = test system: Calu-6
Summary of the method: (§1)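 A single step with final 0.05% Triton X-100, 1% formaldehyde and 1 ug/ml Hoechst fixed the cells and stained nuclei 5 days after treatment. Lung cancer cell lines in 1536-well plates had been treated by pin tool the day after seeding with one drug alone or a fixed anchor-drug dose plus five library-drug doses (not always all listed) in √10 steps, and nuclei were counted on 4× images. Relative viability is the ratio of nuclei in treated wells to nuclei in vehicle wells, taken as the median of duplicate plates.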

[2] = test system: NCI-H1563
Summary of the method: as §1

[3] = test system: IA-LM
Summary of the method: as §1

[4] = test system: A549
Summary of the method: as §1

[5] = test system: EBC-1
Summary of the method: as §1

[6] = test system: NCI-H1703
Summary of the method: as §1

[7] = test system: NCI-H1299
Summary of the method: as §1

O=C(O)CCCCC(CCSCc1ccccc1)SCc1ccccc1 (stereo unspecified) [CPI-613] + CS(=O)(=O)N1CCN(Cc2cc3nc(-c4cccc5[nH]ncc45)nc(N4CCOCC4)c3s2)CC1 [Pictilisib] (partner 1 µM)
relative viability ([1]; first compound 5 µM): 0.938 | relative viability ([1]; first compound 15.81 µM): 0.811 | relative viability ([1]; first compound 50 µM): 0.754 | relative viability ([1]; first compound 158.11 µM): 0.446 | relative viability ([1]; first compound 500 µM): 0.111 | relative viability ([2]; first compound 5 µM): 0.657 | relative viability ([2]; first compound 15.81 µM): 0.597 | relative viability ([2]; first compound 50 µM): 0.623 | relative viability ([2]; first compound 158.11 µM): 0.513 | relative viability ([2]; first compound 500 µM): 0.193 | relative viability ([3]; first compound 5 µM): 0.294 | relative viability ([3]; first compound 15.81 µM): 0.307 | relative viability ([3]; first compound 50 µM): 0.238 | relative viability ([3]; first compound 158.11 µM): 0.0746 | relative viability ([3]; first compound 500 µM): 0.0098 | relative viability ([4]; first compound 5 µM): 0.491 | relative viability ([4]; first compound 15.81 µM): 0.414 | relative viability ([4]; first compound 50 µM): 0.39 | relative viability ([4]; first compound 158.11 µM): 0.127 | relative viability ([4]; first compound 500 µM): 0.0559 | relative viability ([5]; first compound 5 µM): 0.391 | relative viability ([5]; first compound 15.81 µM): 0.37 | relative viability ([5]; first compound 50 µM): 0.362 | relative viability ([5]; first compound 158.11 µM): 0.206 | relative viability ([5]; first compound 500 µM): 0.0773 | relative viability ([6]; first compound 5 µM): 0.25 | relative viability ([6]; first compound 15.81 µM): 0.264 | relative viability ([6]; first compound 50 µM): 0.27 | relative viability ([6]; first compound 158.11 µM): 0.213 | relative viability ([6]; first compound 500 µM): 0.115 | relative viability ([7]; first compound 5 µM): 0.789 | relative viability ([7]; first compound 15.81 µM): 0.756 | relative viability ([7]; first compound 50 µM): 0.785 | relative viability ([7]; first compound 158.11 µM): 0.404 | relative viability ([7]; first compound 500 µM): 0.106

O=C(O)CCCCC(CCSCc1ccccc1)SCc1ccccc1 (stereo unspecified) [CPI-613] + Cc1nc(NC(=O)N2CCC[C@H]2C(N)=O)sc1-c1ccnc(C(C)(C)C(F)(F)F)c1 [Alpelisib] (partner 2 µM)
relative viability ([1]; first compound 5 µM): 0.997 | relative viability ([1]; first compound 15.81 µM): 0.876 | relative viability ([1]; first compound 50 µM): 0.891 | relative viability ([1]; first compound 158.11 µM): 0.174 | relative viability ([1]; first compound 500 µM): 0.0521 | relative viability ([2]; first compound 5 µM): 0.958 | relative viability ([2]; first compound 15.81 µM): 0.938 | relative viability ([2]; first compound 50 µM): 0.939 | relative viability ([2]; first compound 158.11 µM): 0.796 | relative viability ([2]; first compound 500 µM): 0.113 | relative viability ([3]; first compound 5 µM): 0.614 | relative viability ([3]; first compound 15.81 µM): 0.679 | relative viability ([3]; first compound 50 µM): 0.644 | relative viability ([3]; first compound 158.11 µM): 0.399 | relative viability ([3]; first compound 500 µM): 0.0122 | relative viability ([4]; first compound 5 µM): 0.859 | relative viability ([4]; first compound 15.81 µM): 0.675 | relative viability ([4]; first compound 50 µM): 0.69 | relative viability ([4]; first compound 158.11 µM): 0.384 | relative viability ([4]; first compound 500 µM): 0.0243 | relative viability ([5]; first compound 5 µM): 0.823 | relative viability ([5]; first compound 15.81 µM): 0.651 | relative viability ([5]; first compound 50 µM): 0.678 | relative viability ([5]; first compound 158.11 µM): 0.199 | relative viability ([5]; first compound 500 µM): 0.0384 | relative viability ([6]; first compound 5 µM): 0.381 | relative viability ([6]; first compound 15.81 µM): 0.484 | relative viability ([6]; first compound 50 µM): 0.275 | relative viability ([6]; first compound 158.11 µM): 0.208 | relative viability ([6]; first compound 500 µM): 0.0611 | relative viability ([7]; first compound 5 µM): 1.02 | relative viability ([7]; first compound 15.81 µM): 1.04 | relative viability ([7]; first compound 50 µM): 1.04 | relative viability ([7]; first compound 158.11 µM): 1.09 | relative viability ([7]; first compound 500 µM): 1.08

Cc1cnc(-c2cnc(NCCNc3ccc(C#N)cn3)nc2-c2ccc(Cl)cc2Cl)[nH]1 + CC(C)C[C@H](NC(=O)[C@H](Cc1ccccc1)NC(=O)c1cnccn1)B(O)O [Bortezomib] (partner 0.002 µM)
relative viability ([1]; first compound 0.08 µM): 0.933 | relative viability ([1]; first compound 0.253 µM): 0.996 | relative viability ([1]; first compound 0.8 µM): 1.06 | relative viability ([1]; first compound 2.53 µM): 1.03 | relative viability ([2]; first compound 0.08 µM): 0.831 | relative viability ([2]; first compound 0.253 µM): 0.944 | relative viability ([2]; first compound 0.8 µM): 0.827 | relative viability ([2]; first compound 2.53 µM): 0.914 | relative viability ([3]; first compound 0.08 µM): 0.849 | relative viability ([3]; first compound 0.253 µM): 0.855 | relative viability ([3]; first compound 0.8 µM): 1.06 | relative viability ([3]; first compound 2.53 µM): 0.891 | relative viability ([5]; first compound 0.08 µM): 0.607 | relative viability ([5]; first compound 0.8 µM): 0.546 | relative viability ([5]; first compound 2.53 µM): 0.509 | relative viability ([6]; first compound 0.08 µM): 0.337 | relative viability ([6]; first compound 0.253 µM): 0.352 | relative viability ([6]; first compound 0.8 µM): 0.5 | relative viability ([6]; first compound 2.53 µM): 0.699 | relative viability ([7]; first compound 0.08 µM): 1.05 | relative viability ([7]; first compound 0.253 µM): 1 | relative viability ([7]; first compound 0.8 µM): 1.02 | relative viability ([7]; first compound 2.53 µM): 0.969

Cc1cnc(-c2cnc(NCCNc3ccc(C#N)cn3)nc2-c2ccc(Cl)cc2Cl)[nH]1 + Cc1nc(NC(=O)N2CCC[C@H]2C(N)=O)sc1-c1ccnc(C(C)(C)C(F)(F)F)c1 [Alpelisib] (partner 2 µM)
relative viability ([1]; first compound 0.08 µM): 0.946 | relative viability ([1]; first compound 0.253 µM): 0.924 | relative viability ([1]; first compound 0.8 µM): 0.934 | relative viability ([1]; first compound 2.53 µM): 0.822 | relative viability ([2]; first compound 0.08 µM): 1.02 | relative viability ([2]; first compound 0.253 µM): 0.9 | relative viability ([2]; first compound 0.8 µM): 0.946 | relative viability ([2]; first compound 2.53 µM): 0.913 | relative viability ([3]; first compound 0.08 µM): 0.837 | relative viability ([3]; first compound 0.253 µM): 0.77 | relative viability ([3]; first compound 0.8 µM): 0.86 | relative viability ([3]; first compound 2.53 µM): 0.826 | relative viability ([4]; first compound 0.08 µM): 0.853 | relative viability ([4]; first compound 0.253 µM): 0.753 | relative viability ([4]; first compound 0.8 µM): 0.818 | relative viability ([4]; first compound 2.53 µM): 0.94 | relative viability ([5]; first compound 0.08 µM): 0.796 | relative viability ([5]; first compound 0.253 µM): 0.782 | relative viability ([5]; first compound 0.8 µM): 0.78 | relative viability ([5]; first compound 2.53 µM): 0.812 | relative viability ([6]; first compound 0.08 µM): 0.329 | relative viability ([6]; first compound 0.253 µM): 0.312 | relative viability ([6]; first compound 0.8 µM): 0.37 | relative viability ([6]; first compound 2.53 µM): 0.535 | relative viability ([7]; first compound 0.08 µM): 1.01 | relative viability ([7]; first compound 0.253 µM): 0.992 | relative viability ([7]; first compound 0.8 µM): 1.1 | relative viability ([7]; first compound 2.53 µM): 0.996
